The source of these data is PMC6017068, “Cloning and Functional Characterization of Two 4-Coumarate: CoA Ligase Genes from Selaginella moellendorffii” (Molecules : A Journal of Synthetic Chemistry and Natural …, 2018).

SMILES strings stand for the structures.

What all share (type): biochemical
Conditions in all cases: ATP, MgCl2, 200 mM Tris-HCl, optimal pH about 7.0, optimal temperature 50 °C

In assay [1] the target is T1, Sm4CL2 (Selaginella moellendorffii, UniProt D8S6A2).
T1 construct: gene 4CL2-1; 75-79 kDa with tags (tags kept)
Briefly: HPLC quantification of CoA ester after […] min.

Assay [2] deals with T1, Sm4CL2. Briefly: UV absorption at […] nm, CoA ester formation.
Assay [3] has as its target T1, Sm4CL2. Briefly: UV absorption at […] nm, CoA ester formation. This is another data set of the same source.
The target in assay [4] is T1, Sm4CL2. Briefly: UV absorption at […] nm, CoA ester formation. The source holds these as a separate data set.

T1 sequence (D8S6A2 entry or part of it): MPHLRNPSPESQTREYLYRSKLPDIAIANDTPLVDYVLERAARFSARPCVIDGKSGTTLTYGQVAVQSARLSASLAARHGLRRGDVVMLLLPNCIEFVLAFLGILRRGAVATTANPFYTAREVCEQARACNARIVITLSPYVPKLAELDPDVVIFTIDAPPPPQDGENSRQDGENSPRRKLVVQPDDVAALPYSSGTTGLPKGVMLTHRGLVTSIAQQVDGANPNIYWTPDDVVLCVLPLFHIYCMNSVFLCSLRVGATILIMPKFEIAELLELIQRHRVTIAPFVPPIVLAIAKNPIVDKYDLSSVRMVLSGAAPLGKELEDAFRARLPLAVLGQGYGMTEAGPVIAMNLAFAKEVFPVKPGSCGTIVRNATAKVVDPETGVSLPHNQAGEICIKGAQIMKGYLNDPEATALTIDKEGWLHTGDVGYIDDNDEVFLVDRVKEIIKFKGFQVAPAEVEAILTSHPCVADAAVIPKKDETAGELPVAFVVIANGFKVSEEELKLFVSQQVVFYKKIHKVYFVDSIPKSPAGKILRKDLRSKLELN

Regarding `O=C(O)CCc1ccc(O)cc1` [dihydro-p-coumaric acid], on Sm4CL2 [1], the Km came to 220 ± 36.9 µM.

As to `O=C(O)/C=C/c1ccccc1` [cinnamic acid], the Km at Sm4CL2 [2] is 127 ± 11.6 µM.

Turning to `O=C(O)/C=C/c1ccc(O)cc1` [p-coumaric acid], the Km on Sm4CL2 [3] came to 19.7 ± 2.92 µM.

With `COc1cc(/C=C/C(=O)O)ccc1O` [ferulic acid], at Sm4CL2 [4], the Km was 96 ± 13.4 µM.

As for `O=C(O)/C=C/c1ccc(O)c(O)c1` [caffeic acid], at Sm4CL2 [4], the Km is 19 ± 2.61 µM.

The term Km denotes the concentration of substrate that gives half-maximal velocity.
